# pIC50: −log10 of the molar value. Values joined by “and” are separate entries in the source; they are usually repeats but may differ in a detail not shown here. Equal entries are not always repeated. “Also recorded” adds a separate entry of the source.
# Assays:
# [1] = tested on: SH-SY5Y cells; test: Aβ-induced toxicity in SH-SY5Y cells, MTS assay; format: cell-based, human; settings: pretreated 24 hrs, then 25 μM Aβ 48 hrs
# Experimental: (§1) Cell Culture. The cell line SH-SY5Y was cultured in DMEM/F12 media supplemented with 10% fetal bovine serum, 1% penicillin-streptomycin and maintained as monolayer cultures in a humidified atmosphere containing 5% CO2 at 37° C.^42 All cell lines were authenticated via short tandem repeat analysis and tested for mycoplasma using the a commercial mycoplasma detection kit as per the manufacturer's instructions, showing no contamination. Where indicated, cells were also cultured in DMEM/low glucose media. All compounds were diluted to 20 mM solution in DMSO and were serially diluted in cell culture media for cell treatments to a final concentration range of 0.01 to 100 μM, maintaining the final DMSO concentration at less than 1%. Positive control compound HupA was serially diluted in a similar fashion as the synthesized compounds.
# (§2) Amyloid Preparation. The peptide Aβ1-42, referred to as “Aβ”, was obtained from a commercial source. The oligomers of Aβ were prepared using an established method,^43 Aβ peptide was resuspended in 0.5 mM NaOH at a concentration of […] and stored at −80° C. For use in cell cultures, the stock solution was incubated at 37° C. for 5-7 days. Before use, the peptide was diluted to 25 μM in DMEM/low glucose media.
# (§3) Cell Viability Assays. The SH-SY5Y cells were plated at a density of 50,000 cells/well in 96-well plates and allowed to adapt overnight in a humidified atmosphere containing 5% CO2 at 37° C. The cells were pretreated (24 hours) with the test compound and exchanged to a serum-free DMEM/low glucose media, prior to incubation with 25 μM of Aβ. Cell viability was measured after 48 hours using commercial MTS assay or lactate dehydrogenase (LDH) cytotoxicity assay.
# Employing human neuroblastoma SH-SY5Y ‘neuron-like’ cells, known to express ABAD,^20 experimental conditions are described herein that result in reproducible loss of 65% cell viability upon treatment with 25 μM Aβ after 48-hour incubation (FIG. 4A). Compound 1 (AG18051) and its analog 14b were screened for toxic effects in the SH-SY5Y cell lines.
# HupA at 10 μM concentration provided 74% protection from Aβ-induced toxicity. […] Again, synthesized compound 14b at 1 μM, afforded greater protection than HupA at 10 μM concentration.
# [2] = target: T1, ABAD (Homo sapiens, UniProt Q99714); settings: at 10 μM concentration; cited from earlier work
# T1 sequence (Q99714 1-261): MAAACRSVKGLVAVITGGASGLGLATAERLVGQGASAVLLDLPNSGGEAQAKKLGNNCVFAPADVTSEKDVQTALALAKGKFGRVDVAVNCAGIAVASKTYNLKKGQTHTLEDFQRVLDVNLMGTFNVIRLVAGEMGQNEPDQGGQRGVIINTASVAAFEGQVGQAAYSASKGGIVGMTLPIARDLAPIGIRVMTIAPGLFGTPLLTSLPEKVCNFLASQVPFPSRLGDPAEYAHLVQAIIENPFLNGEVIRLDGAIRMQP
# [3] = tested on: SH-SY5Y cells; test: Mitochondrial Stress Test in Aβ-treated SH-SY5Y cells (extracellular flux analyzer); format: cell-based, human; settings: for proton leak, ATP production and maximal respiration: restoration of mitochondrial function lost by Aβ: then 25 μM Aβ
# Experimental: Mitochondrial Stress Test. […] After 48 hours, media was replaced with assay medium consisting of XF Base Medium supplemented with 10 mM glucose, 10 mM pyruvic acid, and 1 mM L-glutamine. Subsequently, the analysis of mitochondrial oxygen consumption rate (OCR) was performed in a flux analyzer. The OCR values were obtained both during baseline (prior to addition of any Mito Stress Test substances), and after the addition of […], 2 μM FCCP and 0.5 μM rotenone+0.5 μM antimycin A, respectively. Prior to analysis, data were corrected by withdrawing non-mitochondrial respiration (measured after the injection of rotenone and antimycin A) from all measured OCR values. After the experiment, cells were lysed using RIPA buffer and protease inhibitor cocktail, then proteins were quantified via BCA assay. Results were normalized to protein concentration of each well to its OCR value.
# [4] = cited from earlier work
# [5] = tested on: SH-SY5Y cells; test: Aβ-induced toxicity in SH-SY5Y cells, lactate dehydrogenase (LDH) release assay; format: cell-based, human; settings: 1 μM, pretreated 24 hrs, then 25 μM Aβ 48 hrs
# Experimental: as §1, §2
# Cell Viability Assays. […] Cell viability was measured after 48 hours using commercial MTS assay or lactate dehydrogenase (LDH) cytotoxicity assay. […]
# [6] = target: T2, Aβ-ABAD PPI (Homo sapiens, UniProt Q99714); test: Estradiol ELISA assay: rescue of Aβ-induced reduction of estradiol levels in SH-SY5Y cells; format: cell-based
# T2 construct: wildtype human SH-SY5Y cell lines, which are known to express ABAD; endogenous in cells; host or cells: SH-SY5Y
# T2 sequence (Q99714 2-261 limits assumed): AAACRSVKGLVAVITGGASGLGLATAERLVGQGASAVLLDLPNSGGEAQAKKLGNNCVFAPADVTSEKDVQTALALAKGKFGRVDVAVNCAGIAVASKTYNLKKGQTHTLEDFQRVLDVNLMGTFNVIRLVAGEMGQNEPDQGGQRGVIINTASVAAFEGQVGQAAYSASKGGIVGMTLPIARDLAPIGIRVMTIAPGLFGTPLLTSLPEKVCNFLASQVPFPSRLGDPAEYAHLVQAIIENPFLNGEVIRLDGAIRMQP
# Experimental: as §1, §2
# Estradiol ELISA assay. SH-SY5Y cells were treated with compounds (24 hours), followed by Aβ (72 hours) in a similar fashion to that employed in the cell viability assays, the cell culture medium was collected, and cells were lysed using RIPA buffer and protease inhibitor cocktail, then proteins were quantified via BCA assay. An estradiol assay was performed. In brief, the plate was loaded with samples, along with the estradiol tracer and the specific antiserum to estradiol and incubated for one hour at room temperature. After five washing steps, Ellman's Reagent was added, and the plate developed for 60 minutes with gentle shaking at room temperature. The calculated estradiol concentration was normalized to the total protein content of the samples.
# Statistical Analyses. The IC50 values of each compound were acquired from a single experiment with each inhibitor concentration run in triplicate and the statistical significance was calculated using the Student t test, or a one-way or two-way ANOVA. A P value of <0.05 was considered statistically significant. IC50 values were calculated.
# To determine the effect of Aβ on estradiol production, and ABAD's role in this process, wildtype human SH-SY5Y cell lines, which are known to express ABAD, were incubated for 72 hours with Aβ.^20 Estradiol levels in the cell lysate were measured with a commercial ELISA-based estradiol assay. […] To determine if AG18051 treatment affects Aβ-induced reduction of estradiol levels, 0.1 or 1 μM AG18051 was preincubated in SH-SY5Y cells for 24 hours prior to Aβ exposure. […] AG18051 at 1 μM protected SH-SY5Y cells from Aβ-induced reduction of estradiol production to a greater significance than HupA. This confirms literature reports that AG18051 is neuroprotective and that it exerts this effect by ameliorating Aβ-induced reduction of estradiol production by ABAD.^20, 23
# This assay methodology allows direct screening of compound activity in the presence of Aβ and provides direct evidence of the ability of compounds to rescue Aβ-induced reduction of estradiol production by ABAD. To measure the effect of AG18051 alone in SH-SY5Y cell lines, a 0.01-100 μM dose-response range was tested, and their effect on estradiol levels (FIG. 2B). […] To evaluate the effect of the increase of AG18051 dose in maintaining estradiol levels reduced by Aβ, AG18051 was tested in increasing concentrations in the presence of Aβ (FIG. 2B).
# [7] = target: T1, ABAD; test: Estradiol levels in SH-SY5Y cells treated with the substance alone; format: cell-based; parameters: To measure the effect of AG18051 alone in SH-SY5Y cell lines; endogenous in cells; host or cells: SH-SY5Y
# Experimental: Estradiol ELISA assay. […] An estradiol assay was performed. In brief, the plate was loaded with samples, along with the estradiol tracer and the specific antiserum to estradiol and incubated for one hour at room temperature. After five washing steps, Ellman's Reagent was added, and the plate developed for 60 minutes with gentle shaking at room temperature. The calculated estradiol concentration was normalized to the total protein content of the samples.
# [8] = tested on: SH-SY5Y cells; test: Cell viability of SH-SY5Y cells with compound alone; format: cell-based, human; settings: up to 100 μM
# Experimental: as §1
# as §3, with “assay. […]” for “assay.”
"pIC50 ([6]; compounds 24 hours then Aβ 72 hours, amelioration of Aβ-induced reduction of estradiol levels, read-out: IC50 (estradiol assay))",decrease in estradiol levels compared to control ([7]; compound alone at 100 μM),SMILES,protection from Aβ-induced toxicity (MTS assay) ([1]; 10 μM),ABAD inhibition activity [2],"basal respiration: restored respiration levels ([3]; 10 μM pretreatment 24 hrs, then 25 μM Aβ 48 hrs)","proton leak, ATP production and maximal respiration: restoration of mitochondrial function lost by Aβ ([3]; 10 μM pretreatment)",protection of cell viability (MTS assay) ([1]; 1 μM),solubility [4],LDH release compared with Aβ treatment alone [5],"estradiol levels in the presence of Aβ ([6]; preincubated 24 hours prior to Aβ exposure, compared to Aβ-only control, listed as AG18051)","basal respiration: restored share of the cell respiration reduced by Aβ ([3]; 1 μM pretreatment 24 hrs, then 25 μM Aβ 48 hrs)","proton leak, ATP production and maximal respiration: restoration of mitochondrial function lost by Aβ ([3]; 1 μM pretreatment)","effect on estradiol levels, compound alone ([7]; 0.01-100 μM dose-response range)",toxicity to reduce cell viability [8]
,,C/C=C1\[C@H]2C=C(C)C[C@]1(N)c1ccc(=O)[nH]c1C2 [Huperzine A],74%,possess ABAD inhibition activity,46%,trend to restore,,,,,,,,
5.91 and 5.92,20%,"O=C(C(c1ccccc1)n1cnc2[nH]ncc2c1=S)N1CCCCCC1 (centres unmarked) [Compound 1, 1-(azepan-1-yl)-2-phenyl-2-(4-thioxo-1,4-dihydro-5H-pyrazolo[3,4-d]pyrimidin-5-yl)ethan-1-one, reference compound]",,,,,79%,poor solubility,significantly reducing LDH release,significantly maintained estradiol levels; also recorded: dose-dependent increase in estradiol levels,37%,trend to restore,no significant reduction in estradiol levels,no toxicity
